Experimental data taken from patent US9062024B2, “Nitrogen-containing heterocyclic compound and salt thereof, and a fungicide for agricultural and horticultural use” (Nippon Soda Co., Ltd., priority 2009, dated 2015).

melting point [°C] | SMILES
201 to 202 | c1ccc2c(c1)NCCN=C2c1cnc2ccccc2c1
187 to 189 | CC(=O)N1CCN=C(c2cnc3ccccc3c2)c2ccccc21
115 to 116 | CC1(C)CN=C(c2cnc3ccccc3c2)c2ccccc2C1 [Compound B2-3, 4,4-dimethyl-1-(3-quinolinyl)-4,5-dihydro-3H-2-benzazepine]
121 to 123 | CC1(C)CCN=C(c2cnc3ccccc3c2)c2ccccc21 [Compound B2-25, 5,5-dimethyl-1-(3-quinolinyl)-4,5-dihydro-3H-2-benzazepine]
